Assay [1] has as its system phosphorylated/total Akt and Raf-1. In words: Western blotting of Hsp90 client proteins in multiple cancer cell lines. It is filed as cell-based, human. To be noted: BT474/MCF-7/SK-Br3, 1975, HT1080, 4-4/HUH7, PC3, 2008, U87MG, HT29. From the text:
FIGS. 10A and 10B show the effect of CP9 on the expression of Raf-1, phosphorylated Akt, and total Akt in 1975 lung cancer, BT474 breast cancer and HuH-7 liver cancer as determined by western blotting. α-Tubulin was used as the loading control.
CP9 had no effect on the expression of the Hsp90 client proteins in normal mouse embryonic fibroblasts (MEF) cells (FIG. 10C).
For orientation: Immunoblotting shows a protein as a band on a membrane.

The next assay concerns the target T1, Hsp90α/p23 interactions (Homo sapiens, UniProt P07900).
T1 construct: expressed in transfected cells; also with FL-eGFP reporter (293Tα-FG) and as xenografts in nude mice
In words: RL/FL bioluminescence imaging of 293T xenografts in living mice. It is filed as in vivo. To be noted: CP9 80 mg/kg i.p. The procedure:
(§1) Maximum radiance (photons/sec/cm^2/sr) from RL signals was normalized to that of FL signals at each site and at each time point to account for the effect of CP9 on cell proliferation. The RL/FL ratios were normalized to that of time 0 h to monitor the individual change in Hsp90(α/β)/p23 interactions in each mouse over time. Results were expressed as mean±S.E.M for the control and treatment groups for Hsp90α/p23 (left panel) and Hsp90β/p23 interactions (right panel).
(§2) To monitor the inhibition of Hsp90(α/β)/p23 interactions by CP9 in living mice, a second reporter (FL-eGFP) was introduced into the 293T cells stably expressing Hsp90(α/β)/p23 split RL reporters (now referred as 293T(α/β)—FG cells). Although ^18F-FLT has also been used to monitor tumor cell proliferation in small animals by PET (Tseng et al., (2005) J. Nucl. Med. 46: 1851-1857), FL imaging was used because of the higher sensitivity and ease of performing sequentially with RL imaging for Hsp90(α/β)/p23 interactions. […] Baseline RL and FL signals in each implanted tumor were determined upon i.v. substrate injection.
(§3) Based on experience with the Hsp90 inhibitors 17-AAG and PU-H71, CP9 (80 mg/kg) (n=5) was tested in animal experiments by i.p. injection with four doses at […] post baseline imaging (FIG. 7A). An equal volume of DMSO was injected into the carrier control group (n=5, FIG. 7B). Mice treated with 75 mg/kg PU-H71 (n=2) served as positive controls. Mice were re-imaged for Hsp90(α/β)/p23 interactions and cell proliferation via RL (FIG. 5B, left panels) and FL (FIG. 5B, right panels) imaging at the time points indicated, respectively. To account for the effect of cell number on Hsp90(α/β)/p23 interactions, RL signals were normalized to FL signals for each tumor at each time point, prior to normalization to that of time 0 h.
(§4) Mice were gas anesthetized using isofluorane (2% in 100% oxygen, 1 L/min) during all injection and imaging procedures and kept at 37° C. Mice were imaged using a cooled CCD camera (IVIS 200, Caliper Life Sciences, Mountain View, Calif.). […] Baseline RL activities in the implanted tumors in living mice were determined by i.v. injection of 30 μg cltz (in 150 μl of 5% ethanol: 95% PBS) and image acquisition of 3 mins. After a 30 mins wait for RL signals to decay, FL activities were determined by i.v. injection of 163 μg of D-Luc in 100 μl PBS with image acquisition of 10 sequences for 15 sec each to obtain the peak max radiance. […] Maximum radiance of RL was divided by that of FL signals at each time point, prior to normalization to that of time 0 hr for each individual mouse, and expressed as average radiance±S.E.M for each treatment group.

The next assay has as its target T2, Hsp90β/p23 interactions (Homo sapiens, UniProt P08238).
T2 construct: expressed in transfected cells; also with FL-eGFP reporter (293Tβ-FG) and as xenografts in nude mice
The description is as above. It is filed as in vivo. To be noted: CP9 80 mg/kg i.p., p>0.05. How it is done: as §1, §2, §3, §4

Assay [2] has as its system DOX-resistant V79/ADR lung cancer cells. Put plainly: Sensitivity to DOX, Alamar Blue assay. It is filed as cell-based. Conditions: DOX 0.31-10 μM with inhibitor (CP9 8 μM), 24 h. The procedure: (§5) FIGS. 13A-13C illustrate the inhibition of cell proliferation of DOX-resistant V79/ADR lung cancer cells by CP9 and the Hsp90 inhibitor PU-H71 in cell culture. V79 lung cancer cells and […] cells that are resistant to DOX were treated with DOX (0.31-10 μM) in the presence or absence of CP9 (8 μM) for 24 h before determination of cell number by an Alamar Blue assay.
(§6) Both Hsp90 isoforms (α and β) are expressed in cancer cells, but Hsp90β is constitutively expressed, whereas the expression of Hsp90α is highly inducible during stress and drug treatment. Using the genetically encoded split Renilla reporter system according to the disclosure, it was possible to decipher the individual contributions of each isoform in determining the sensitivity of Hsp90 inhibitors. It was reported that the transcription of MDR1 is regulated by HSF-1, which in turn is regulated by Hsp90α (Trepel et al., (2010) Nat. Rev. Cancer 10: 537-549). To determine the biological significance of CP9 selectivity in inhibiting Hsp90α/p23 interactions, V79 lung cancer cells and V79/ADR cells that overexpress multidrug-resistant protein and are insensitive to growth inhibition by doxorubicin (DOX) were used. V79 and V79/ADR cells were treated with DOX alone or in the presence of CP9. On the other hand, the addition of CP9 sensitized V79/ADR cells to DOX, as shown by the decrease in cell proliferation relative to treatment with DOX alone, as shown in FIG. 13B. […] The results also are consistent with the observation that derivatives of Hsp90 inhibitor peptides sensitize cancer cells with overexpression of MDR to epirubicin (a class of anthracyclines that includes DOX) (Molnar et al., (2007) In Vivo 21: 429-433).
A general note: Alamar Blue is a resazurin reagent that responds to reducing activity.

For the next assay, the system named is V79 lung cancer cells. In words: Sensitivity to DOX, Alamar Blue assay. It is filed as cell-based. To be noted: DOX 0.31-10 μM with CP9 8 μM, 24 h. How it is done:
as §5, §6

These results are taken from patent US20130310347A1, “MULTI-MODALITY MOLECULAR IMAGING HIGH-THROUGHPUT ASSAY FOR IDENTIFYING HEAT SHOCK PROTEIN 90 (HSP90) INHIBITORS” (The Board of Trustees of the Leland Stanford Junior …, priority 2012, published 2013).

T2 sequence (P08238 whole entry): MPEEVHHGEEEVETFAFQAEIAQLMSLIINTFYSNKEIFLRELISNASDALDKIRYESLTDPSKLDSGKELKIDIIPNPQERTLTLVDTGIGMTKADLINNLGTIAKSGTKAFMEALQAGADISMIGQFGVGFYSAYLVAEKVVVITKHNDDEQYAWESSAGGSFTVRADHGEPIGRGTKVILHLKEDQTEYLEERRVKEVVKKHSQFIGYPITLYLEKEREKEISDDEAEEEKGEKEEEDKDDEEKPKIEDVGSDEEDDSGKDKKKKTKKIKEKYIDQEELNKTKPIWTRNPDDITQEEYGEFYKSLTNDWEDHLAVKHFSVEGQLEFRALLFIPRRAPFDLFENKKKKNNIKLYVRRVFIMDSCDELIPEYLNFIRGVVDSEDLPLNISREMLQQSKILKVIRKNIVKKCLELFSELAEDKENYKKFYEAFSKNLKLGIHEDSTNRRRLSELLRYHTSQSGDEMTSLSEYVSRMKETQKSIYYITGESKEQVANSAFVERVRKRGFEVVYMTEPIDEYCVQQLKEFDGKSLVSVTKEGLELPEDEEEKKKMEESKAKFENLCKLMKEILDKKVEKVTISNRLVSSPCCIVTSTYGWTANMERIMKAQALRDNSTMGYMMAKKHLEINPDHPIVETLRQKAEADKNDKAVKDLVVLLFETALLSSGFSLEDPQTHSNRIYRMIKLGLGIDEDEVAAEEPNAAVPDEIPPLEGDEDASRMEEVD

On to `Cc1cc(NC(=O)CSc2nc(-c3cccs3)cc(C(F)(F)F)n2)no1` [CP9, N-(5-methylisoxazol-3-yl)-2-(4-(thiophen-2-yl)-6-(trifluoromethyl)pyrimidin-2-ylthio)acetamide], for which the “degradation of phosphorylated/total Akt and Raf-1” value in assay [1] is reported as “various levels of degradation”. For the same compound, the “RL/FL ratio in Hsp90α/p23 xenografts, normalized to time 0 h” value on Hsp90α/p23 interactions (14 h) is given as 122±39%; at Hsp90α/p23 interactions (38 h, p<0.05 vs carrier control) it was 79±19%. Further, the “RL/FL ratio in Hsp90β/p23 xenografts, normalized to time 0 h” value stood at 58±18% on Hsp90β/p23 interactions (14 h) and 83±42% at Hsp90β/p23 interactions (38 h). In assay [2], the “sensitivity of drug-resistant V79/ADR cells to DOX” value is given as “partially restored the sensitivity”. The “sensitivity of drug-sensitive V79 cells to DOX” value in the assay on V79 lung cancer cells is given as “did not affect the sensitivity”.
